According to PubChem BioAssay AID1919001 (Molecular Pharmacology Branch, DTP, NCI, 2023):

System: 699152-130-R-J1-PDC complex spheroid growth
Assay: Anticancer human tumor 699152-130-R-J1-PDC patient-derived pancreatic carcinoma cell line growth inhibition [AhR]
Conditions: for IC50: curve of first compound; for viability, T/C: stronger effect = lower value; active = viability on the fitted dose curve at most 10% of control; inactive = the rest
In short: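 Agents were dosed in half-log steps down from roughly clinical Cmax, or from 10 microM where Cmax was unknown, alone and with AhR antagonists. Read-out: percent test/control growth of tumor spheroids containing HUVEC and MSC stromal cells.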

[1] = second compound 0.1 µM, first compound 0.0316 µM
[2] = second compound 0.1 µM, first compound 0.1 µM
[3] = second compound 0.1 µM, first compound 0.316 µM
[4] = second compound 0.1 µM, first compound 1 µM
[5] = second compound 0.1 µM, first compound 3.16 µM
[6] = second compound 0.1 µM, first compound 10 µM
[7] = second compound 0.316 µM, first compound 0.0316 µM
[8] = second compound 0.316 µM, first compound 0.1 µM
[9] = second compound 0.316 µM, first compound 0.316 µM
[10] = second compound 0.316 µM, first compound 1 µM
[11] = second compound 0.316 µM, first compound 3.16 µM
[12] = second compound 0.316 µM, first compound 10 µM
[13] = second compound 1 µM, first compound 0.0316 µM
[14] = second compound 1 µM, first compound 0.1 µM
[15] = second compound 1 µM, first compound 0.316 µM
[16] = second compound 1 µM, first compound 1 µM
[17] = second compound 1 µM, first compound 3.16 µM
[18] = second compound 1 µM, first compound 10 µM
[19] = second compound 3.16 µM, first compound 0.0316 µM
[20] = second compound 3.16 µM, first compound 0.1 µM
[21] = second compound 3.16 µM, first compound 0.316 µM
[22] = second compound 3.16 µM, first compound 1 µM
[23] = second compound 3.16 µM, first compound 3.16 µM
[24] = second compound 3.16 µM, first compound 10 µM
[25] = second compound 10 µM, first compound 0.0316 µM
[26] = second compound 10 µM, first compound 0.1 µM
[27] = second compound 10 µM, first compound 0.316 µM
[28] = second compound 10 µM, first compound 1 µM
[29] = second compound 10 µM, first compound 3.16 µM
[30] = second compound 10 µM, first compound 10 µM
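Note: compound exposure lasted 7 days after spheroids had grown for 3 days.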

CC1COCCN1c1cc(C2(S(C)(=N)=O)CC2)nc(-c2ccnc3[nH]ccc23)n1 (stereo not given) + CC(CO)NC(=O)c1cc(-c2ccc(Cl)cc2)nn(-c2cnn(C)c2)c1=O
> 10 µM: IC50 (second compound 0.1 µM) | IC50 (second compound 0.316 µM) | IC50 (second compound 1 µM) | IC50 (second compound 3.16 µM) | IC50 (second compound 10 µM)
inactive: viability, T/C [1] 87.9% | viability, T/C [2] 95.5% | viability, T/C [3] 88.7% | viability, T/C [4] 94.5% | viability, T/C [5] 79.2% | viability, T/C [6] 74.6% | viability, T/C [7] 108% | viability, T/C [8] 94.2% | viability, T/C [9] 101% | viability, T/C [10] 85.8% | viability, T/C [11] 85.5% | viability, T/C [12] 78.5% | viability, T/C [13] 98.6% | viability, T/C [14] 101% | viability, T/C [15] 94.3% | viability, T/C [16] 87.9% | viability, T/C [17] 84% | viability, T/C [18] 68% | viability, T/C [19] 80.4% | viability, T/C [20] 112% | viability, T/C [21] 88.5% | viability, T/C [22] 86.4% | viability, T/C [23] 73.4% | viability, T/C [24] 62.8% | viability, T/C [25] 78.5% | viability, T/C [26] 82.2% | viability, T/C [27] 91.3% | viability, T/C [28] 76.4% | viability, T/C [29] 72.5% | viability, T/C [30] 68.2%

COc1ccc([C@@H](O)c2cc(-c3ncnc4cc(N5CCOCC5)ccc34)c(F)cc2Cl)nn1 + CC(CO)NC(=O)c1cc(-c2ccc(Cl)cc2)nn(-c2cnn(C)c2)c1=O
4.41 µM: IC50 (second compound 1 µM)
inactive: viability, T/C [1] 95.1% | viability, T/C [2] 105% | viability, T/C [3] 86.2% | viability, T/C [4] 78.6% | viability, T/C [5] 52.5% | viability, T/C [6] 33.1% | viability, T/C [7] 93.5% | viability, T/C [8] 90.2% | viability, T/C [9] 91.9% | viability, T/C [10] 74.3% | viability, T/C [11] 61.5% | viability, T/C [12] 32.1% | viability, T/C [13] 108% | viability, T/C [14] 100% | viability, T/C [15] 94.2% | viability, T/C [16] 74.1% | viability, T/C [17] 56.5% | viability, T/C [18] 35.9% | viability, T/C [19] 85% | viability, T/C [20] 105% | viability, T/C [21] 94.9% | viability, T/C [22] 70.6% | viability, T/C [23] 58.8% | viability, T/C [24] 34.8% | viability, T/C [25] 88.8% | viability, T/C [26] 87.9% | viability, T/C [27] 68.9% | viability, T/C [28] 63.4% | viability, T/C [29] 47.1% | viability, T/C [30] 38.1%
4.24 µM: IC50 (second compound 3.16 µM)
2.61 µM: IC50 (second compound 10 µM)
3.77 µM: IC50 (second compound 0.1 µM)
4.81 µM: IC50 (second compound 0.316 µM)

O=C(C=Cn1cnc(-c2cc(C(F)(F)F)cc(C(F)(F)F)c2)n1)NNc1cnccn1 + CC(CO)NC(=O)c1cc(-c2ccc(Cl)cc2)nn(-c2cnn(C)c2)c1=O
> 3 µM: IC50 (second compound 0.1 µM) | IC50 (second compound 0.316 µM) | IC50 (second compound 1 µM) | IC50 (second compound 3.16 µM) | IC50 (second compound 10 µM)
inactive: viability, T/C (second compound 0.1 µM, first compound 0.00949 µM) 87.8% | viability, T/C (second compound 0.1 µM, first compound 0.03 µM) 98.4% | viability, T/C (second compound 0.1 µM, first compound 0.0949 µM) 82.1% | viability, T/C (second compound 0.1 µM, first compound 0.3 µM) 74.3% | viability, T/C (second compound 0.1 µM, first compound 0.949 µM) 82.5% | viability, T/C (second compound 0.1 µM, first compound 3 µM) 83.2% | viability, T/C (second compound 0.316 µM, first compound 0.00949 µM) 90.2% | viability, T/C (second compound 0.316 µM, first compound 0.03 µM) 82.5% | viability, T/C (second compound 0.316 µM, first compound 0.0949 µM) 76.7% | viability, T/C (second compound 0.316 µM, first compound 0.3 µM) 87.3% | viability, T/C (second compound 0.316 µM, first compound 0.949 µM) 87.5% | viability, T/C (second compound 0.316 µM, first compound 3 µM) 70.5% | viability, T/C (second compound 1 µM, first compound 0.00949 µM) 88.8% | viability, T/C (second compound 1 µM, first compound 0.03 µM) 83.9% | viability, T/C (second compound 1 µM, first compound 0.0949 µM) 75.5% | viability, T/C (second compound 1 µM, first compound 0.3 µM) 74% | viability, T/C (second compound 1 µM, first compound 0.949 µM) 82.6% | viability, T/C (second compound 1 µM, first compound 3 µM) 79% | viability, T/C (second compound 3.16 µM, first compound 0.00949 µM) 92.1% | viability, T/C (second compound 3.16 µM, first compound 0.03 µM) 88% | viability, T/C (second compound 3.16 µM, first compound 0.0949 µM) 87% | viability, T/C (second compound 3.16 µM, first compound 0.3 µM) 71.8% | viability, T/C (second compound 3.16 µM, first compound 0.949 µM) 71.2% | viability, T/C (second compound 3.16 µM, first compound 3 µM) 75.4% | viability, T/C (second compound 10 µM, first compound 0.00949 µM) 99% | viability, T/C (second compound 10 µM, first compound 0.03 µM) 82.1% | viability, T/C (second compound 10 µM, first compound 0.0949 µM) 68.7% | viability, T/C (second compound 10 µM, first compound 0.3 µM) 72.4% | viability, T/C (second compound 10 µM, first compound 0.949 µM) 82.3% | viability, T/C (second compound 10 µM, first compound 3 µM) 73.4%
